Experimental data published in ChEMBL document CHEMBL1201862, “PubChem BioAssay data set” (2004).
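Five concentrations, 48 hours, 96-well plates. GI50: concentration for 50% inhibition of growth.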 Activity calls are given as the source filed them. Cut-off read from the data, not from the text of the source: active = GI50 up to about 1.1 µM and inactive = higher.

Columns and labels:
Assay in all cases: growth of human tumour cells (NCI), 48 h
[1] = test system: SF-268
[2] = test system: UO-31
[3] = test system: SW-620
[4] = test system: PC-3
[5] = test system: M14
[6] = test system: IGROV-1
[7] = test system: A549
[8] = test system: ACHN
[9] = test system: MDA-MB-231
[10] = test system: HOP-62
[11] = test system: TK-10
[12] = test system: COLO 205
[13] = test system: SF-539
[14] = test system: KM12
[15] = test system: MDA-MB-435
[16] = test system: HT-29
[17] = test system: DU-145
[18] = test system: A498
[19] = test system: 786-0
[20] = test system: SF-295
[21] = test system: UACC-62
[22] = test system: SN12C
[23] = test system: Hs-578T
[24] = test system: SK-MEL-2
[25] = test system: U-251
[26] = test system: HCT-116
[27] = test system: UACC-257
[28] = test system: K562
[29] = test system: MCF7
[30] = test system: SK-MEL-5
[31] = test system: CCRF-CEM
[32] = test system: EKVX
[33] = test system: NCI-H226
[34] = test system: OVCAR-3
[35] = test system: SR
[36] = test system: MDA-N
[37] = test system: SK-MEL-28
[38] = test system: OVCAR-4
[39] = test system: SNB-19
[40] = test system: NCI-H23
[41] = test system: OVCAR-5
[42] = test system: LOX IMVI
[43] = test system: RPMI-8226
[44] = test system: Malme-3M
[45] = test system: MOLT-4
[46] = test system: HCT-15
[47] = test system: NCI/ADR-RES
[48] = test system: SNB-75
[49] = test system: OVCAR-8
[50] = test system: SK-OV-3
[51] = test system: RXF 393
[52] = test system: HCC 2998
[53] = test system: HOP-92
[54] = test system: NCI-H460
[55] = test system: NCI-H522
[56] = test system: T47D
[57] = test system: HL-60
[58] = test system: CAKI-1

Measured: GI50

COc1cc(OC)c2c(C)cc(=O)oc2c1
inactive: [1] 47.9 µM | [2] 20.3 µM | [3] 54.5 µM | [4] > 100 µM | [5] > 100 µM | [6] 35.2 µM | [7] 55.7 µM | [8] 36.7 µM | [9] 70.3 µM | [10] > 100 µM | [11] 66.4 µM | [12] 54.1 µM | [13] 34.8 µM | [14] 54.2 µM | [15] 88.9 µM | [16] 43.4 µM | [17] 52.7 µM | [18] 20.6 µM | [19] 52.6 µM | [20] 75.9 µM | [21] 96.4 µM | [22] 72.6 µM | [23] 61.1 µM | [24] > 100 µM | [25] 84.7 µM | [26] 43.1 µM | [27] 93.8 µM | [28] 45 µM | [29] 85.9 µM | [30] > 100 µM | [31] > 100 µM | [32] 50.5 µM | [33] 41.5 µM | [34] > 100 µM | [35] 45.1 µM | [36] > 100 µM | [37] > 100 µM | [38] > 100 µM | [39] > 100 µM | [40] 64.4 µM | [41] > 100 µM | [42] 47.1 µM | [43] 44.6 µM | [44] 53 µM | [45] 82.6 µM | [47] 63.8 µM | [48] 25.9 µM | [49] 55.7 µM | [50] > 100 µM
56.5 µM: [46]

CC1=NC(C)(C)N(O)C1(C)C
inactive: [1] > 100 µM | [2] > 100 µM | [3] > 100 µM | [4] > 100 µM | [5] > 100 µM | [51] > 100 µM | [6] > 100 µM | [7] > 100 µM | [8] > 100 µM | [9] > 100 µM | [10] > 100 µM | [11] > 100 µM | [12] > 100 µM | [13] > 100 µM | [14] > 100 µM | [15] > 100 µM | [52] > 100 µM | [53] > 100 µM | [16] > 100 µM | [17] > 100 µM | [18] > 100 µM | [54] > 100 µM | [19] > 100 µM | [20] > 100 µM | [21] > 100 µM | [22] > 100 µM | [24] > 100 µM | [25] > 100 µM | [55] > 100 µM | [26] > 100 µM | [28] > 100 µM | [29] > 100 µM | [30] > 100 µM | [31] > 100 µM | [32] > 100 µM | [33] > 100 µM | [34] > 100 µM | [35] > 100 µM | [36] > 100 µM | [56] > 100 µM | [37] > 100 µM | [38] > 100 µM | [39] > 100 µM | [40] > 100 µM | [41] > 100 µM | [42] > 100 µM | [43] > 100 µM | [44] > 100 µM | [57] > 100 µM | [45] > 100 µM | [47] > 100 µM | [48] > 100 µM | [49] > 100 µM | [50] > 100 µM
> 100 µM: [46]

CC(C)(C)OC(=O)N[C@H]1CCN(C2CCCCC2)C1=O
inactive: [1] > 100 µM | [2] > 100 µM | [3] > 100 µM | [4] > 100 µM | [5] > 100 µM | [6] > 100 µM | [7] > 100 µM | [8] > 100 µM | [9] > 100 µM | [10] > 100 µM | [11] > 100 µM | [12] > 100 µM | [13] > 100 µM | [15] > 100 µM | [52] > 100 µM | [53] > 100 µM | [17] > 100 µM | [18] > 100 µM | [54] > 100 µM | [19] > 100 µM | [21] > 100 µM | [22] > 100 µM | [23] > 100 µM | [24] > 100 µM | [25] > 100 µM | [26] > 100 µM | [28] > 100 µM | [29] > 100 µM | [30] > 100 µM | [31] > 100 µM | [32] > 100 µM | [33] > 100 µM | [35] > 10 µM | [36] > 100 µM | [37] > 100 µM | [39] > 100 µM | [40] > 100 µM | [41] > 100 µM | [42] > 100 µM | [43] > 100 µM | [57] > 100 µM | [45] > 100 µM | [47] 40.6 µM | [48] > 100 µM | [49] > 100 µM | [50] > 100 µM
> 100 µM: [46]

COC(=O)CC1(O)C(/C=C/c2ccccc2)C(C(=O)OC)C(=O)C(C(=O)OC)C1C(=O)OC (stereo unspecified)
> 100 µM: [46]
inactive: [1] > 100 µM | [2] > 100 µM | [3] > 100 µM | [4] 78.7 µM | [5] > 100 µM | [51] > 100 µM | [6] > 100 µM | [7] > 100 µM | [8] > 100 µM | [9] > 100 µM | [10] > 100 µM | [11] > 100 µM | [12] > 100 µM | [13] > 100 µM | [14] > 100 µM | [15] > 100 µM | [52] > 100 µM | [53] > 100 µM | [16] > 100 µM | [17] > 100 µM | [18] > 100 µM | [54] > 100 µM | [19] > 100 µM | [20] 18.5 µM | [21] 81.1 µM | [22] > 100 µM | [23] > 100 µM | [24] > 100 µM | [25] 79.3 µM | [55] 49.5 µM | [26] 54 µM | [27] > 100 µM | [28] > 100 µM | [29] 96.8 µM | [30] > 100 µM | [31] 48.3 µM | [58] > 100 µM | [32] > 100 µM | [33] > 100 µM | [34] > 100 µM | [35] > 100 µM | [36] 44 µM | [37] > 100 µM | [38] > 100 µM | [39] 45.6 µM | [40] > 100 µM | [41] > 100 µM | [42] 26.7 µM | [43] > 100 µM | [44] > 100 µM | [57] > 100 µM | [45] > 100 µM | [47] 85.3 µM | [49] > 100 µM | [50] > 100 µM

CC12C3C4C1C1C2C3C41CO (stereo unspecified)
> 100 µM: [46]
inactive: [2] > 100 µM | [3] > 100 µM | [5] > 100 µM | [51] > 100 µM | [6] > 100 µM | [7] > 100 µM | [8] > 100 µM | [9] > 100 µM | [11] > 100 µM | [12] > 100 µM | [13] > 100 µM | [14] > 100 µM | [15] > 100 µM | [53] > 100 µM | [16] > 100 µM | [17] > 100 µM | [18] > 100 µM | [54] > 100 µM | [19] > 100 µM | [20] > 100 µM | [21] > 100 µM | [22] > 100 µM | [24] > 100 µM | [25] > 100 µM | [26] > 100 µM | [27] > 100 µM | [28] > 100 µM | [29] > 100 µM | [30] > 100 µM | [31] > 100 µM | [58] > 100 µM | [32] > 100 µM | [33] > 100 µM | [34] > 100 µM | [35] > 100 µM | [36] > 100 µM | [37] > 100 µM | [38] > 100 µM | [39] > 100 µM | [41] > 100 µM | [42] > 100 µM | [57] > 100 µM | [45] > 100 µM | [47] > 100 µM | [48] 34 µM | [49] > 100 µM | [50] > 100 µM
